In patent US20250230172A1 (Vanqua Bio, Inc., priority 2021, published 2025):
pEC50: −log10 of the molar value.

biological target: T1, GCase (Homo sapiens, UniProt P04062); test: live cell PFB assay in HELA cells for activation of GCase; assay type: cell-based
T1 construct: endogenous in cells; host or cells: HeLa cells
T1 sequence (P04062 40-536): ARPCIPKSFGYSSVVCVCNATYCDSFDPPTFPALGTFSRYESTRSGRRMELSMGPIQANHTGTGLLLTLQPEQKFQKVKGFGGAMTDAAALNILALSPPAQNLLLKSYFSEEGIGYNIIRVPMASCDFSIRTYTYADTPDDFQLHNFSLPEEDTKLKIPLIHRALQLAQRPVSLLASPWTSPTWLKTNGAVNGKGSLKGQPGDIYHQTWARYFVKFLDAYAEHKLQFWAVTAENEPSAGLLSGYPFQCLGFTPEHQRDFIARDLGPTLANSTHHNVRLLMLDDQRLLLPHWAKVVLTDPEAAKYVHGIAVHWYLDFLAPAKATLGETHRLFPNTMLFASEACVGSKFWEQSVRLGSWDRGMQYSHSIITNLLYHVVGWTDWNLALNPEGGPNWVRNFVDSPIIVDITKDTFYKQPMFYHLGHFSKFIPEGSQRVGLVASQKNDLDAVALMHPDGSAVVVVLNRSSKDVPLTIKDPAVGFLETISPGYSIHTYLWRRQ
Method: Exemplary compounds were evaluated for activation of GCase in a live cell PFB assay in HELA cells (essentially as described in Ysselstein et al., “LRRK2 kinase activity regulates lysosomal glucocerebrosidase in neurons derived from Parkinson's disease patients” Nature Communications (2019) 10:5570). […] EC50 ranges: A: <10 μM; B: >10-50 μM; C: >50-100 μM; D: >100 μM.

Row | pEC50 | SMILES
1 | > 5.00 | FC(F)Cn1ncc2ncc(N[C@@H]3C[C@@H]4CN(c5ccc(C(F)(F)F)cn5)C[C@@H]4C3)nc21 [Compound 51, (3aR,5S,6aS)—N-[1-(2,2-difluoroethyl)-1H-pyrazolo[3,4-b]pyrazin-6-yl]-2-[5-(trifluoromethyl)pyridin-2-yl]-octahydrocyclopenta[c]pyrrol-5-amine]
2 | > 5.00 | FC(F)Cn1ncc2ncc(N[C@@H]3C[C@@H]4CN(c5cncc(C(F)(F)F)c5)C[C@@H]4C3)nc21 [Compound 52, (3aR,5S,6aS)—N-[1-(2,2-difluoroethyl)-1H-pyrazolo[3,4-b]pyrazin-6-yl]-2-[5-(trifluoromethyl)pyridin-3-yl]-octahydrocyclopenta[c]pyrrol-5-amine]
3 | > 5.00 | FC(F)Cn1ncc2ncc(N[C@H]3C[C@@H]4CN(c5cncc(C(F)(F)F)c5)C[C@@H]4C3)nc21 [Compound 53, (3aR,5S,6aS)—N-[1-(2,2-difluoroethyl)-1H-pyrazolo[3,4-b]pyrazin-6-yl]-2-[5-(trifluoromethyl)pyridin-3-yl]-octahydrocyclopenta[c]pyrrol-5-amine]
4 | 4.30 to 5.00 | CN(c1cnc2cnn(CC(F)F)c2n1)[C@H]1C[C@@H]2CN(c3cncc(C(F)(F)F)c3)C[C@@H]2C1 [Compound 54, (3aR,5S,6aS)—N-[1-(2,2-difluoroethyl)-1H-pyrazolo[3,4-b]pyrazin-6-yl]-N-methyl-2-[5-(trifluoromethyl)pyridin-3-yl]-octahydrocyclopenta[c]pyrrol-5-amine]
5 | > 5.00 | FC(F)Cn1ncc2ncc(-n3cc4c(n3)CCN(c3ncccc3C(F)(F)F)C4)nc21 [Compound 63, 1-(2,2-difluoroethyl)-6-(5-(3-(trifluoromethyl)pyridin-2-yl)-4,5,6,7-tetrahydro-2H-pyrazolo[4,3-c]pyridin-2-yl)-1H-pyrazolo[3,4-b]pyrazine]
6 | 4.30 to 5.00 | FC(F)Cn1ncc2ncc(-n3ncc4c3CCN(c3ncccc3C(F)(F)F)C4)nc21 [Compound 64, 1-(2,2-difluoroethyl)-6-(5-(3-(trifluoromethyl)pyridin-2-yl)-4,5,6,7-tetrahydro-1H-pyrazolo[4,3-c]pyridin-1-yl)-1H-pyrazolo[3,4-b]pyrazine]
7 | > 5.00 | O=C1C2CN(c3cnc4cnn(CC(F)F)c4n3)CCC2CN1c1cccc(C(F)(F)F)n1 (centres unmarked) [Compound 65, 5-(1-(2,2-difluoroethyl)-1H-pyrazolo[3,4-b]pyrazin-6-yl)-2-(6-(trifluoromethyl)pyridin-2-yl)octahydro-3H-pyrrolo[3,4-c]pyridin-3-one]
8 | 4.30 to 5.00 | O=C1CC2CN(c3cccc(C(F)(F)F)n3)CC2CN1c1cnc2cnn(CC(F)F)c2n1 (centres unmarked) [Compound 66, 5-(1-(2,2-difluoroethyl)-1H-pyrazolo[3,4-b]pyrazin-6-yl)-2-(6-(trifluoromethyl)pyridin-2-yl)octahydro-6H-pyrrolo[3,4-c]pyridin-6-one]
9 | > 5.00 | O=C1C2CCN(c3cnc4cnn(CC(F)F)c4n3)CC2CN1c1cccc(C(F)(F)F)n1 (centres unmarked) [Compound 67, 5-(1-(2,2-difluoroethyl)-1H-pyrazolo[3,4-b]pyrazin-6-yl)-2-(6-(trifluoromethyl)pyridin-2-yl)octahydro-1H-pyrrolo[3,4-c]pyridin-1-one]
10 | 4.30 to 5.00 | FC(F)Cn1ncc2ncc(N3CC[C@H]4CN(c5ccc(C(F)(F)F)cn5)C[C@@H]4C3)nc21 [Compound 69, 1-(2,2-difluoroethyl)-6-((3aS,7aR)-2-(5-(trifluoromethyl)pyridin-2-yl)octahydro-5H-pyrrolo[3,4-c]pyridin-5-yl)-1H-pyrazolo[3,4-b]pyrazine]
11 | 4.30 to 5.00 | COc1cncc(N2C[C@H]3C[C@H](Nc4cnc5cnn(CC(F)F)c5n4)C[C@H]3C2)n1 [Compound 76, 1-(2,2-difluoroethyl)-N-((3aR,5s,6aS)-2-(6-methoxypyrazin-2-yl)octahydrocyclopenta[c]pyrrol-5-yl)-1H-pyrazolo[3,4-b]pyrazin-6-amine]
12 | < 4.00 | COc1cnc(N2C[C@H]3C[C@H](Nc4cnc5cnn(CC(F)F)c5n4)C[C@H]3C2)cn1 [Compound 77, 1-(2,2-difluoroethyl)-N-((3aR,5s,6aS)-2-(5-methoxypyrazin-2-yl)octahydrocyclopenta[c]pyrrol-5-yl)-1H-pyrazolo[3,4-b]pyrazin-6-amine]
13 | > 5.00 | FC(F)Cn1ncc2ncc(N[C@H]3C[C@@H]4CN(c5cncc(C(F)(F)F)n5)C[C@@H]4C3)nc21 [Compound 78, 1-(2,2-difluoroethyl)-N-((3aR,5s,6aS)-2-(6-(trifluoromethyl)pyrazin-2-yl)octahydrocyclopenta[c]pyrrol-5-yl)-1H-pyrazolo[3,4-b]pyrazin-6-amine]
14 | 4.30 to 5.00 | FC(F)Cn1ncc2ncc(N[C@H]3C[C@@H]4CN(c5cnc(C(F)(F)F)cn5)C[C@@H]4C3)nc21 [Compound 79, 1-(2,2-difluoroethyl)-N-((3aR,5s,6aS)-2-(5-(trifluoromethyl)pyrazin-2-yl)octahydrocyclopenta[c]pyrrol-5-yl)-1H-pyrazolo[3,4-b]pyrazin-6-amine]
15 | > 5.00 | FC(F)Cn1ncc2ncc(N[C@H]3C[C@@H]4CN(c5nccnc5C(F)(F)F)C[C@@H]4C3)nc21 [Compound 80, 1-(2,2-difluoroethyl)-N-((3aR,5s,6aS)-2-(3-(trifluoromethyl)pyrazin-2-yl)octahydrocyclopenta[c]pyrrol-5-yl)-1H-pyrazolo[3,4-b]pyrazin-6-amine]
16 | 4.30 to 5.00 | COc1nccnc1N1C[C@H]2C[C@H](Nc3cnc4cnn(CC(F)F)c4n3)C[C@H]2C1 [Compound 81, 1-(2,2-difluoroethyl)-N-((3aR,5s,6aS)-2-(3-methoxypyrazin-2-yl)octahydrocyclopenta[c]pyrrol-5-yl)-1H-pyrazolo[3,4-b]pyrazin-6-amine]
17 | 4.30 to 5.00 | FC(F)Cn1ncc2ncc(N[C@H]3C[C@@H]4CN(c5ccc(C(F)(F)F)nn5)C[C@@H]4C3)nc21 [Compound 82, 1-(2,2-difluoroethyl)-N-((3aR,5s,6aS)-2-(6-(trifluoromethyl)pyridazin-3-yl)octahydrocyclopenta[c]pyrrol-5-yl)-1H-pyrazolo[3,4-b]pyrazin-6-amine]
18 | 4.30 to 5.00 | FC(F)Cn1ncc2ncc(N[C@H]3C[C@@H]4CN(c5cc(C(F)(F)F)cnn5)C[C@@H]4C3)nc21 [Compound 83, 1-(2,2-difluoroethyl)-N-((3aR,5s,6aS)-2-(5-(trifluoromethyl)pyridazin-3-yl)octahydrocyclopenta[c]pyrrol-5-yl)-1H-pyrazolo[3,4-b]pyrazin-6-amine]
19 | < 4.00 | FC(F)Cn1ncc2ncc(N[C@H]3C[C@@H]4CN(c5nnccc5C(F)(F)F)C[C@@H]4C3)nc21 [Compound 84, 1-(2,2-difluoroethyl)-N-((3aR,5s,6aS)-2-(4-(trifluoromethyl)pyridazin-3-yl)octahydrocyclopenta[c]pyrrol-5-yl)-1H-pyrazolo[3,4-b]pyrazin-6-amine]
20 | > 5.00 | FC(F)Cn1ncc2ncc(N[C@H]3C[C@@H]4CN(c5nccc(C(F)(F)F)n5)C[C@@H]4C3)nc21 [Compound 85, 1-(2,2-difluoroethyl)-N-((3aR,5s,6aS)-2-(4-(trifluoromethyl)pyrimidin-2-yl)octahydrocyclopenta[c]pyrrol-5-yl)-1H-pyrazolo[3,4-b]pyrazin-6-amine]
